Read-outs that look alike come from different tables or passages of the source.
Key:
Type in all cases: binding
Cq-FABP [1] = biological target: T1, Cq-FABP (Cherax quadricarinatus, UniProt L0I6Z9); assay: BODIPY-C16 steady-state fluorescence anisotropy titration and competition
Protocol: The binding of 4,4-difluoro-5, 7-dimethyl-4-bora-3a, 4a-diaza-s-indacene-3-hexadecanoic acid (BODIPY-C16) to Cq-FABP was investigated by measuring the steady-state fluorescence anisotropy parameter using a Beacon instrument (PanVera, Madison, USA), in a cell thermostatically held at 25°C. The excitation and emission bandpass filters were centered at 488 nm (±6 nm) and 525 nm (±15 nm), respectively. Titration experiments were performed in buffer C (supplemented with 10% DMSO (v/v)) by maintening a constant concentration of BODIPY-C16 (200 nM) and by adding increasing concentrations of Cq-FABP. Using a vertical direction for the polarized excitation source, the steady-state fluorescence anisotropy (r) was calculated according to: [drawing 3] (3) where IV and IH correspond to the parallel (vertical) and perpendicular (horizontal) fluorescence emission intensity components, respectively. The fraction of BODIPY-C16/Cq-FABP complexes (i.e. the fraction of BODIPY-C16 bound to Cq-FABP), fb, was calculated using the following relationship: [drawing 4] (4) where r is the measured fluorescence anisotropy value, rf and rb correspond to the fluorescence anisotropy values of free BODIPY-C16 (ligand in the free state, measured in the absence of Cq-FABP) and Cq-FABP-bound BODIPY-C16 (ligand in the bound state, corresponding to the maximum anisotropy value found at the plateau), respectively. […] The Kd characterizing the BODIPY-C16/Cq-FABP complex (Kd,C16) was calculated by fitting the plot of fb versus [Cq-FABP] using the Graphpad Prism 5.0 software.
The fluorescence anisotropy-based assay was also used in competition experiments to calculate the Kd values (Kd,FA) characterizing non-fluorescent fatty acids. The measurement of the apparent Kd value characterizing the BODIPY-C16/Cq-FABP complex (Kd ^app ,C16) under different concentration conditions for the non-fluorescent FA allows the calculation of Kd,FA according to: [drawing 5] (5) where Kd,C16 corresponds to the Kd characterizing the BODIPY-C16/Cq-FABP complex (in the absence of any non-fluorescent FA) and Kd ^app ,C16 corresponds to the apparent dissociation constant obtained for a given concentration of non-fluorescent FA. The calculation of Kd,FA was also performed in an independent manner by measuring the IC50 value characterizing each non-fluorescent FA. In this approach, the number of complexes corresponding to [C16] = 200 nM and [Cq-FABP] = 5 µM was varied by increasing the concentration of non-fluorescent FA. The IC50 value corresponds to the concentration of non-fluorescent FA that displaces 50% of C16 from the fatty acid binding site of Cq-FABP and is related to Kd,FA through the Cheng-Prusoff relationship: [drawing 6] (6)

Cq-FABP [2] = biological target: T1, Cq-FABP; assay: ANS fluorescence intensity titration and equilibrium displacement of ANS by fatty acids
Protocol: Fluorescence emission spectra were measured at 25°C on a Cary-Eclipse spectrofluorimeter (Varian, CA, USA) equipped with a thermostated cell holder, using solutions (70 µl) placed in microcuvettes (pathlength, 0.3 cm). The binding of non-fluorescent fatty acids (PA, OA, LA, EPA and DHA) to Cq-FABP was measured indirectly by equilibrium displacement experiments using ANS as a fluorescent probe, either by measuring the fluorescence emission of ANS or by measuring the FRET between tryptophan and ANS, resulting in the quenching of donor fluorescence. The excitation wavelength was then set at 296 or 350 nm for tryptophan or ANS, respectively; the slit widths and PMT voltage were adjusted to optimize the fluorescence signal at 25°C. For titration experiments, the fluorescence emission spectrum of tryptophan or ANS was measured and the integrated fluorescence signal of tryptophan (315–360 nm) or ANS (440–600 nm) was calculated. For samples containing high concentrations of ANS, the inner-filter effect was not negligible and was corrected. UV-visible absorption spectra were carried out on a Uvikon XL spectrophotometer.
The equilibrium dissociation constant (Kd,FA) relative to the binding of fatty acids (FA) to Cq-FABP was determined by competition experiments using ANS displacement and linear regression of the following relationship: [drawing 1] (1) where Kd,ANS is the dissociation constant relative to the binding of ANS to the fatty acid binding site, Kd ^app ,ANS is the apparent dissociation constant of ANS obtained in the presence of a given fatty acid concentration.

Cq-FABP [3] = biological target: T1, Cq-FABP; assay: cis-Parinaric acid fluorescence intensity titration and competitive displacement
Text: Cis-parinaric acid and DAUDA were characterized by fluorescence emission in the 380–500 nm region (λmax,em: 410 nm) and in the 480–650 nm region (λmax,em: 540 nm), respectively (excitation wavelengths were set at 320 or 335 nm for cis-parinaric acid or DAUDA, respectively). The fluorescence intensity enhancement upon binding to Cq-FABP was monitored on a Cary-Eclipse spectrofluorimeter as indicated above. All the fluorescence emission intensities were corrected for the inner-filter effect. The emission intensity of a given fluorophore in the presence of Cq-FABP was also systematically corrected for the emission intensity of the free fluorophore. The calculation of Kd,FA was performed by measuring the IC50 value (inhibition concentration 50%) characterizing each non-fluorescent FA. As DAUDA poorly binds to Cq-FABP (see results section), only cis-parinaric acid (CPA) was used for measuring IC50 values. Titration and equilibrium displacement experiments using CPA were performed in buffer C (supplemented with 10% DMSO (v/v)). For the determination of IC50 values, the number of complexes corresponding to [CPA] = 7 µM and [Cq-FABP] = 5 µM was varied by increasing the concentration of non-fluorescent FA. The IC50 value corresponds to the concentration of non-fluorescent FA that displaces 50% of CPA from the fatty acid binding site of Cq-FABP and is related to Kd,FA through the Cheng-Prusoff relationship: [drawing 2] (2)

[4] = 200 nM BODIPY-C16, 5 µM Cq-FABP, read-out: IC50 (displaces 50% of BODIPY-C16 from the fatty acid binding site)
[5] = calculated from the IC50 values, using Eq. 6, 200 nM BODIPY-C16, 5 µM Cq-FABP, read-out: Kd,FA
[6] = calculated from the Kd app,C16 values, using Eq. 5, 200 nM BODIPY-C16, read-out: Kd,FA
[7] = calculated from equilibrium displacement experiments using the fluorescence intensity of ANS (Eq. 1), read-out: Kd,FA

T1 sequence (L0I6Z9 entry or part of it): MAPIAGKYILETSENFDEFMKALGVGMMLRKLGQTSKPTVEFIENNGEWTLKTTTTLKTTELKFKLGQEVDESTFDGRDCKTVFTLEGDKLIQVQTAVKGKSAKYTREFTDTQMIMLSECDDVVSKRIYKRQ

IC50 (Cq-FABP [1]; [4]) | Kd (Cq-FABP [1]; [5]) | Kd (Cq-FABP [1]; [6]) | Kd (Cq-FABP [2]; [7]) | Compound | also measured
2290 nM | 2200 ± 400 nM | 3500 ± 400 nM | 2900 ± 300 nM | CC/C=C\C/C=C\C/C=C\C/C=C\C/C=C\CCCC(=O)O [EPA, cis-5,8,11,14,17-eicosapentaenoic acid] | 
3530 nM | 3400 ± 400 nM | 3000 ± 400 nM | 3100 ± 500 nM | CCCCC/C=C\C/C=C\CCCCCCCC(=O)O [LA, linoleic acid] | Kd (Cq-FABP [3]; calculated from the IC50 values (Eq. 2) using the fluorescence intensity of cis-parinaric acid, 7 µM CPA, 5 µM Cq-FABP, read-out: Kd,FA): 3300 ± 700 nM
 |  |  |  | CCCCCCCC/C=C\CCCCCCCC(=O)O [OA, oleic acid] | IC50 (Cq-FABP [1]): 2230 nM; Kd (Cq-FABP [1]; Kd,FA, calculated from the IC50 values, using Eq. 6, 200 nM BODIPY-C16, 5 µM Cq-FABP): 2150 ± 400 nM; Kd (Cq-FABP [1]; Kd,FA, calculated from the Kd app,C16 values, using Eq. 5, 200 nM BODIPY-C16): 2600 ± 300 nM; Kd (Cq-FABP [3]): 1300 ± 600 nM; Kd (Cq-FABP [2]): 2400 ± 400 nM
 |  |  |  | CC\C=C/C=C/C=C/C=C\CCCCCCCC(=O)O [cis-parinaric acid, reference compound] | Kd (Cq-FABP [3]; fluorescence enhancement upon binding, 5 µM Cq-FABP, buffer C + 10% DMSO (Fig. S3B), read-out: Kd of cis-parinaric acid): 31200 nM

— PMC3528769, “Comparative Study of the Fatty Acid Binding Process of a New FABP from Cherax quadricarinatus by Fluorescence Intensity, Lifetime and Anisotropy” (PLoS ONE, 2012)
